Source: patent US8198273B2, “Compounds and methods for kinase modulation, and indications therefor” (Plexxikon Inc., priority 2009, dated 2012)

How the values were obtained:
[1] = target: CYP3A4(BQ) (Homo sapiens, UniProt P08684); assay: CYP3A4(BQ) inhibition (fluorescent substrate); format: in vitro ADME; settings: read-out: Cyp IC50 3A4(BQ)
Method: (§1) CYP (Cytochrome P450) enzymes are the major drug metabolizing enzymes present in the liver. The inhibition of CYP enzyme activity (IC50) for each of CYP1A2, CYP2C19, CYP2C9, CYP2D6, CYP3A4(BFC) and CYP3A4(BQ) is determined for compounds, where inhibition of metabolism of a known substrate leads to a decrease in the fluorescence of the metabolized product. The fluorescence of the product is monitored as a function of compound concentration. Compounds are dissolved in dimethyl sulfoxide to a concentration of 100 mM. These are diluted 1 μL into 82 μL of acetonitrile. […] These are then serially diluted 1:1 (160 μL to 160 μL co-factor mix) for a total of 10 points. A 10 μL aliquot of this final mixture is dispensed into 384 well assay plates and incubated for 10 minutes at 37° C. […] Assay plates are incubated at 37° C. […] The signal versus compound concentration is used to determine the IC50. The enzymes and substrates for this assay are obtained from BD Biosciences.

[2] = tested on: Colo205 xenograft; assay: Colo205 xenograft mouse model, tumor growth inhibition; format: in vivo; settings: COLO 205, 336 h, female nu/nu mice, 10 mg/kg daily for fourteen days
Method: Tumor growth is monitored to approximately 100 mg size, and mice are distributed to treatment groups such that the mean tumor burden within a group is within 10% of the overall mean tumor burden. […] Mice are observed daily, with tumor burden and body weights measured twice a week. Animals with tumor burden above 1500-2000 mg and any animals in moribund condition are euthanized. The average tumor growth of vehicle control group mice is compared to the average tumor growth of the test compound mice. Percent tumor growth inhibition is calculated as 100×[(tumor growth control-tumor growth test compound)/tumor growth control].

[3] = tested on: SKMEL2 melanoma cells (Ras mutation); assay: SKMEL2 cell growth inhibition (ATPlite); format: cell-based; settings: Homo sapiens, SK-MEL-2, 72 h; SKMEL2, 3 days incubation
Method: (§2) Compounds are assessed in a variety of cell based assays. For example human cell lines with B-Raf V600E mutation (A375 melanoma, SKMEL3 melanoma, and COL0205 colon adenocarcinoma), as well as tumorigenic cell lines with wild-type B-RAF (SW620 colon adenocarcinoma) or with Ras mutations (SKMEL2 melanoma and IPC298 melanoma). Similar assays may be used to assess additional tumorigenic cell lines with Ras mutations, including, but not limited to, M202, M207, M243, M244, M296, S117, HCT116, HCT15, DLD1, MiaPaCa, A549, NCI-H23, NCI-H460, HOP62, MDA-MB231, Hs-578T, HL60, MOLT-4, and CCRF-CEM.
(§3) On day 1, cells are counted, then centrifuged in a conical tube for 5 minutes at 1000 rpm. The supernatant is removed and cells are re-suspended as follows: • SW620 (ATCC catalog #CCL-27): resuspend in Leibovitz's L-15 medium, 2 mM L-glutamine, 10% fetal bovine serum to 6×10^4 cells/mL. • A375 (ATCC catalog #CRL-1619): resuspend in Dulbecco's modified Eagle's medium, 4 mM L-glutamine, 4.5 g/L D-glucose, 10% fetal bovine serum to 6×10^4 cells/mL. • COL0205 (ATCC catalog #CCL-222): resuspend in RPMI 1640, 2 mM L-glutamine, 1.5 g/L sodium bicarbonate, 4.5 g/L D-glucose, 10 mM HEPES, 1.0 mM sodium pyruvate, 10% fetal bovine serum to 6×10^4 cells/mL. • SKMEL2 (ATCC catalog #HTB-68): resuspend in Minimum Eagle essential medium, 2 mM L-glutamine, 1.5 g/L sodium bicarbonate, 0.1 mM non-essential amino acids, 1.0 mM sodium pyruvate, 10% fetal bovine serum to 6×10^4 cells/mL. • SKMEL3 (ATCC catalog #HTB-69): resuspend in McCoy's 5A medium, 1.5 mM L-glutamine, 15% fetal bovine serum to 6×10^4 cells/mL. • IPC298 (DSMZ catalog #ACC 251): resuspend in RPMI 1640, 2 mM L-glutamine, 10% fetal bovine serum to 6×10^4 cells/mL.
(§4) The cells are plated, 50 μL in each well of a 96-well dish (Corning 3610) and incubated at 37° C. in 5% CO2 overnight, cells plated to a final concentration of cells as follows:
SKMEL2: 2,000 cells per well.
(§5) On day 2, compound at a maximum concentration of 5 mM is serially diluted 1:3 for a total of 8 point titration with DMSO as a control. A 1 μL aliquot of each dilution point and control is added to 249 μL growth media and 50 μL is added to a well containing cells, providing 10 μM compound at the maximum concentration point. The cells are incubated for 3 days at 37° C. in 5% CO2.
(§6) On day 5, ATPlite 1 step Luminescence Assay System (Perkin Elmer #6016739) is brought to room temperature along with the cell cultures. ATPlite is added 25 μL to each well, shake for 2 minutes, and the cells are incubated at room temperature for 10 minutes, then luminescence is read on Safire reader. The measured luminescence correlates directly with cell number, such that the reading as a function of compound concentration is used to determine the IC50 value.
(§7) It is understood that the results of these assays may vary as assay conditions are varied. Inhibition levels determined under the conditions described herein represent a relative activity for the compounds tested under the specific conditions employed. The cell based assays are likely to show variability due to the complexity of the system and the sensitivity thereof to any changes in the assay conditions. […] Results for compounds that are tested and show substantially no inhibition below the highest tested concentration are represented as “-” in the tables below. In some instances, the compounds were not tested in all of the assays, or assay results were not valid, as indicated by NA in the tables below.

[4] = Relative solubility by turbidity in aqueous buffers of varying pH; format: physicochemical
Method: As an indication of relative solubility, the turbidity of compounds in aqueous solutions is assessed. To assess possible compound properties in different physiological compartments, such as stomach, intestine, and blood, a series of aqueous buffers with varying pH is used. Thus each compound is diluted into four different physiologically relevant buffers and solution turbidity is measured by spectrophotometry.
Compounds are dissolved at a concentration of 25 mM in dimethyl sulfoxide, then serially diluted 1:1 into a 96 well plate, diluting 10 times in pure dimethyl sulfoxide, with the final well of each row a dimethyl sulfoxide blank. In an assay plate, 99 μL of appropriate buffer is added to each well, and 1 μL of each sample dilution is added to the buffer, achieving a range of final total concentrations in aqueous solutions having different pH. The buffers used are Simulated Gastric Fluid (SGF-pH 1.5) 0.5M NaCl, pH 1.5; Simulated Intestinal fluid (SIF-pH 4.5 and pH 6.8) 0.05M NaH2PO4, pH 4.5 and 6.8; and Hepes Buffer (HEPES-pH 7.4) 10 mM HEPES, 150 mM NaCl, pH 7.4. Control compounds pyrene, estriol and propranolol HCl are also assessed. Plates are spun and then mixed for 1 minute, and the absorbance is read using a Tecan Safire II to read wavelengths in the visible range (490, 535, and 650 nm) at four locations per well, reflecting the degree of turbidity present. The average optical density for each wavelength in each well is graphed vs. compound concentration, and the concentration at which the curve crosses a threshold O.D. of 0.01 for each wavelength is reported as the endpoint turbidity assay result. The average of the three wavelengths is used to compare turbidity of compounds. Compounds are considered to have low solubility if the threshold concentration is <31.3 04, moderate solubility if the threshold concentration is 31.3 μM to 250 μM, and high solubility if the threshold concentration is >250 μM.

[5] = tested on: A375 melanoma cells (B-Raf V600E); assay: A375 cell growth inhibition (ATPlite); format: cell-based; settings: Homo sapiens, A-375, 72 h; A375, 3 days incubation
Method: as §2, §3, §4, §5, §6, §7

[6] = target: CYP3A4(BFC) (Homo sapiens, UniProt P08684); assay: CYP3A4(BFC) inhibition (fluorescent substrate); format: in vitro ADME; settings: read-out: Cyp IC50 3A4(BFC)
CYP3A4(BFC), sequence (P08684 whole entry): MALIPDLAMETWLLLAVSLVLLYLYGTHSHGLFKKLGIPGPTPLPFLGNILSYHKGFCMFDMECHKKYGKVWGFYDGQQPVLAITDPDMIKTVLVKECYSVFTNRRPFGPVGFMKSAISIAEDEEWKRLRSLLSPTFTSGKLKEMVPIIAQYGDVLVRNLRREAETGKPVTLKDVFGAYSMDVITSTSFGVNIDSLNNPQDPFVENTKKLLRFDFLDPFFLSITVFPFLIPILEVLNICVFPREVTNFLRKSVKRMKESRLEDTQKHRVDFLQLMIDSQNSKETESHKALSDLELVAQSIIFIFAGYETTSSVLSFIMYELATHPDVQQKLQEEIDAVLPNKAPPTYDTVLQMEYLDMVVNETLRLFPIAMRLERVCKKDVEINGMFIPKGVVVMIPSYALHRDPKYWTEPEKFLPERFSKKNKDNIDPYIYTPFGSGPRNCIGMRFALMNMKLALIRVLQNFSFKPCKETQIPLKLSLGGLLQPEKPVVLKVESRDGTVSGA
Method: as §1

[7] = tested on: SW620 colon adenocarcinoma cells (wild-type B-RAF); assay: SW620 cell growth inhibition (ATPlite); format: cell-based; settings: Homo sapiens, SW-620, 72 h; SW620, 3 days incubation
Method: as §2, §3, §4, §5, §6, §7

[8] = tested on: COLO205 colon adenocarcinoma cells (B-Raf V600E); assay: COLO205 cell growth inhibition (ATPlite); format: cell-based; settings: Homo sapiens, COLO 205, 72 h; COLO205, 3 days incubation
Method: as §2, §3, §4, §5, §6, §7

CYP3A4(BQ), sequence (P08684 whole entry): as above

IC50 [1]: < 5 µM
IC50 [3]: > 10 µM
IC50 [5]: < 1 µM
IC50 [6]: < 5 µM
IC50 [7]: > 10 µM
IC50 [8]: < 1 µM
SMILES: O=C(c1c(F)ccc(NS(=O)(=O)c2cccnc2)c1F)c1c[nH]c2ncc(Cl)cc12 [P-2071, Pyridine-3-sulfonic acid [3-(5-chloro-1H-pyrrolo[2,3-b]pyridine-3-carbonyl)-2,4-difluoro-phenyl]-amide]
inhibition in vivo at 10 mg/kg [2]: 59%
turbidity threshold (L, M, H) 7.4 ([4]; HEPES pH 7.4): M (moderate solubility if the threshold concentration is 31.3 μM to 250 μM)
turbidity threshold (L, M, H) 4.5 ([4]; SIF pH 4.5): M (moderate solubility if the threshold concentration is 31.3 μM to 250 μM)
turbidity threshold (L, M, H) 6.8 ([4]; SIF pH 6.8): M (moderate solubility if the threshold concentration is 31.3 μM to 250 μM)
turbidity threshold (L, M, H) 1.4 ([4]; buffer pH 1.4 (SGF)): M (moderate solubility if the threshold concentration is 31.3 μM to 250 μM)
